We go through one compound from patent publication US7344829B2, “Methods for detecting the efficacy of anticancer treatments” (Board of Regents, the University of Texas System, priority 2000, dated 2008).

SMILES strings stand for the structures. Where two headings read alike, the source gives them in different places.

Data set [1] deals with T1, Tek (Homo sapiens, UniProt Q02763).
T1 construct: GST-fused kinase domains of Kdr, Flt-1, Flk, Tek, c-Met, and c-Kit were expressed in baculovirus; GST; made in house
In words: GST-fused kinase domain assay, Tek. Type of data set: biochemical. As for the experimental part:
GST-fused kinase domains of Kdr, Flt-1, Flk, Tek, c-Met, and c-Kit were expressed in baculovirus and purified over glutathione-Sepharose. Kinase inhibition was measured by detecting the decrease in phosphorylation of poly(Glu,Tyr 4:1) essentially as previously described for EGF-R. Each kinase was incubated under optimized buffer conditions in 20 mM Tris-HCl, pH 7.5, 1–3 mM MnCl2, 3–10 mM MgCl2, 10 μM Na3VO4, 1 mM DTT, 0.2 μCi/[γ-^33P]ATP, 1–8 μM ATP, 3–8 μg/ml poly(Glu,Tyr 4:1), 1% DMSO in a total volume of 30 μl in the presence or absence of PKI166 for 10 min at ambient temperature. Reactions were terminated by adding 10 μl of 250 mM EDTA, and the reaction mixture was transferred onto an Immobilon-PVDG membrane (Millipore, Bedford, Mass.). Following a washing (0.5% H3PO4), a soaking in EtOH, and drying, filters were counted in a liquid scintillation counter. IC50 values for PKI166 were calculated by linear regression analysis of the percentage inhibition. Inhibition of Cdc2/cyclin B protein kinase (Arion et al. 1988; Partanen et al. 1991) and PKC (McGlynn et al. 1992b) was assayed as previously described.

The conditions of data set [2]: mice, cited from earlier work.
Data set [3] addresses T2, c-Abl (Homo sapiens, UniProt P00519).
T2 construct: The His-tagged kinase domain of c-Abl was cloned and expressed in the baculovirus/Sf9 system; His; made in house; host or cells: baculovirus/Sf9
T2 sequence (P00519 242-493 limits assumed): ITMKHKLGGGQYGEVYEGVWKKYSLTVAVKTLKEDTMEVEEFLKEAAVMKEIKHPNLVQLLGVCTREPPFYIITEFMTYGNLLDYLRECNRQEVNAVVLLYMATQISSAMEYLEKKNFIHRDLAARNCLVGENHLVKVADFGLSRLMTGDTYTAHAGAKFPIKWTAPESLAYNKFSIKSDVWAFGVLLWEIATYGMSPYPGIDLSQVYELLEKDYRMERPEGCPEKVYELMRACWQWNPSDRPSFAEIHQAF
In words: In vitro kinase filter binding assay, c-Abl kinase domain. Particulars: c-Abl tyrosine kinase. The class given is biochemical. As to the method: Preparation of Enzymes and Kinase Assays. In vitro enzyme assays using EGF-R (McGlynn et al. 1992a), Abl (Geissler et al. 1992), and c-Src (Geissler et al. 1990) protein tyrosine kinases were performed in 96-well plates as a filter binding assay. Briefly, EGF-R intracellular kinase domain (EGF-R-ICD) was assayed in 20 mM Tris-HCl, pH 7.5, 10 mM MnCl2, 10 μM Na3VO4, 1 mM DTT, 0.1 μCi/assay [γ-^33P]ATP, 0.4 μM ATP, 2 μ/ml poly(Glu,Tyr 4:1) (Sigma P275), 1% DMSO, and 30 ng EGF-R-ICD in a total volume of 30 μl. […] Src kinase (60 μg/ml) was preactivated with 50 μM ATP for 10 min at room temperature, and kinase inhibition was measured in 20 mM Tris-HCl, pH 7.5, 10 mM MgCl2, 10 μM Na3VO4, 1 mM DTT, 0.1 μCi/assay (=30 μl ) [γ-^33P]ATP, 20 μM ATP, 25 μg/ml poly(Glu,Tyr 4:1), 1% DMSO, and 10 ng c-Src enzyme.
GST-fused kinase domains of Kdr, Flt-1, Flk, Tek, c-Met, and c-Kit were expressed in baculovirus and purified over glutathione-Sepharose. Kinase inhibition was measured by detecting the decrease in phosphorylation of poly(Glu,Tyr 4:1) essentially as previously described for EGF-R. Each kinase was incubated under optimized buffer conditions in 20 mM Tris-HCl, pH 7.5, 1–3 mM MnCl2, 3–10 mM MgCl2, 10 μM Na3VO4, 1 mM DTT, 0.2 μCi/[γ-^33P]ATP, 1–8 μM ATP, 3–8 μg/ml poly(Glu,Tyr 4:1), 1% DMSO in a total volume of 30 μl in the presence or absence of PKI166 for 10 min at ambient temperature. […]

Data set [4] has as its target Cdc2/cyclin B. The data set can be described thus: Cdc2/cyclin B protein kinase inhibition assay. The class given is biochemical. As for the experimental part:
GST-fused kinase domains of Kdr, Flt-1, Flk, Tek, c-Met, and c-Kit were expressed in baculovirus and purified over glutathione-Sepharose. Kinase inhibition was measured by detecting the decrease in phosphorylation of poly(Glu,[…]:1) essentially as previously described for EGF-R. […] Reactions were terminated by adding 10 μl of 250 mM EDTA, and the reaction mixture was transferred onto an Immobilon-PVDG membrane (Millipore, Bedford, Mass.). Following a washing (0.5% H3PO4), a soaking in EtOH, and drying, filters were counted in a liquid scintillation counter. […] Inhibition of Cdc2/cyclin B protein kinase (Arion et al. 1988; […] et al. 1991) and […] et al. 1992b) was assayed as previously described.

The target in data set [5] is T3, phosphorylated (activated) EGF-R (Mus musculus, UniProt Q01279).
T3 construct: from tissue; host or cells: UV-2237 fibrosarcoma tumours and dorsal skin/hair follicles of C3H/HeN mice
The data set can be described thus: Activated EGF-R in UV-2237 fibrosarcoma tumors and skin/hair follicles of mice (immunohistochemistry). Type of data set: in vivo, C3H/HeN mice. Particulars: 6 administrations. As for the experimental part:
C3H/HeN mice were injected subcutaneously with UV-2237 fibrosarcoma cells. Seven days after the implantation, the mice were given 3 weekley oral administrations of PBS, 10 mg/kg PKI166, 50 mg/kg PKI166, and 100 mg/kg PKI166. The mice were killed on day 15 of treatment (6 oral administrations), i.e., one day after the last oral administration.
The tumors were harvested and processed for immunohistochemistry. The contralateral dorsal skin and hair were excised and prepare for immunohistochemistry. The tumors and skin/hair samples were sectioned and stained with antibodies against the EGF-R and antibodies against the phosphorylated (activated) EGF-R. The results are shown in FIG. 8.

T1 sequence (Q02763 824-1096 limits assumed, species assumed): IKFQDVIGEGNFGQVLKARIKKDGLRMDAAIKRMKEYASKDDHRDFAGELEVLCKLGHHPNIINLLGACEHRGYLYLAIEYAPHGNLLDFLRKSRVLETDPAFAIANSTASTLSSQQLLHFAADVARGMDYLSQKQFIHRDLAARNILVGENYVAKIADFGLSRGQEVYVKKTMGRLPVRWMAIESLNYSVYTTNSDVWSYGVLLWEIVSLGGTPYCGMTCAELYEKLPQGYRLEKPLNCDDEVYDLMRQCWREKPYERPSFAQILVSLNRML

`C[C@@H](Nc1ncnc2[nH]c(-c3ccc(O)cc3)cc12)c1ccccc1` [PKI166, 4-(R)-phenethylamino-6-(hydroxyl) phenyl-7H-pyrrolo[2.3-d]-pyrimidine]: the concentration for half-maximal inhibition (IC50) in data set [1] was > 1000 nM; in data set [3], 28 nM; in data set [4], 78000 nM. Further, the “Sustained levels of unchanged compound in plasma, time after oral administration” value in data set [2] (plasma, oral) is given as “up to 8 h”. The Cmax in data set [2] (single oral administration of 100 mg/kg, plasma, read-out: C max in plasma) was 32.8 µM; in data set [2] (single oral administration of 100 mg/kg, subcutaneous A431 tumors, read-out: C max in subcutaneous A431 tumors), 53 µM. In addition, the t max in data set [2] (single oral administration of 100 mg/kg) is 1 h. Also, in data set [5] (oral 10 mg/kg), the “Expression of activated EGF-R in tumors or skin/hair follicles” value is on record as “did not decrease”. The “Phosphorylation of EGF-R in tumors and skin/hair follicles” value in data set [5] (oral 50 mg/kg or 100 mg/kg) was “inhibited phosphorylation”.

A word on the IC50: it is the concentration at which inhibition is half-maximal. A higher IC50 goes with a need for much substance.
